From the Deep4Chem optical property database
Each block holds one compound with its values, some of them ahead of it.

Assay: photoluminescence quantum yield (fraction); solvent given as SMILES
[1] = in O=P(c1ccccc1)(c1ccccc1)c1ccccc1Oc1ccccc1P(=O)(c1ccccc1)c1ccccc1

photoluminescence quantum yield (in CO): 0.18
Structure (SMILES): Oc1ccc(-c2nc(-c3ccccc3)c(-c3ccccc3)[nH]2)cc1

photoluminescence quantum yield (in C1CCCCC1): 0.13 | photoluminescence quantum yield (in CC#N): 0 | photoluminescence quantum yield (in CO): 0 | photoluminescence quantum yield (in ClC(Cl)Cl): 0.35
Structure (SMILES): CN(C)c1ccc2nc(-c3ccc(C=C4C(=O)c5ccccc5C4=O)cc3)sc2c1

photoluminescence quantum yield (in ClCCl): 0.38
Structure (SMILES): Clc1ccc2nc3cc4ccccc4cc3c(-c3ccccc3)c2c1

photoluminescence quantum yield (in CC#N): 0.55 | photoluminescence quantum yield (in CO): 0.05
Structure (SMILES): COc1ccc(-c2c(-c3ccc(OC)cc3)c3c4c(cccc4c2-c2ccccc2)C(=O)c2ccccc2-3)cc1

photoluminescence quantum yield (in CC#N): 0.45
Structure (SMILES): CCOC(=O)c1c2c3c(ccc(Br)c3c3cc4ccccc4cc13)N(C)C2=O

photoluminescence quantum yield (in ClCCl): 0.23
Structure (SMILES): CCN(CC)c1ccc2cc(-c3nc4cc(C(=O)Nc5ccccc5Cl)ccc4o3)c(=O)oc2c1

photoluminescence quantum yield (in C1CCOC1): 0.82
Structure (SMILES): Cc1ccc(C2=C3C=CC(Sc4ccccc4)=[N+]3[B-](F)(F)n3c(Sc4ccccc4)ccc32)cc1

photoluminescence quantum yield (in C1CCCCC1): 0.717 | photoluminescence quantum yield (in CCOC(C)=O): 0.233 | photoluminescence quantum yield (in CN(C)C=O): 0.023 | photoluminescence quantum yield (in CO): 0.002 | photoluminescence quantum yield (in ClCCl): 0.325
Structure (SMILES): CCN(CC)c1ccc2c(c1)oc(=O)c1cc3cnn(-c4ccccc4)c3nc12

photoluminescence quantum yield (in ClC(Cl)Cl): 0.52
Structure (SMILES): N#CC1=CC(Br)=CC(C#N)=P1(c1ccccc1)c1ccccc1

photoluminescence quantum yield (in ClCCl): 0.78
Structure (SMILES): c1ccc2c(-c3c4ccccc4c(-c4ccc(-n5c6ccccc6c6ccccc65)cc4)c4ccccc34)cccc2c1

photoluminescence quantum yield (in O): 0.36
Structure (SMILES): COc1ccc(-c2cc(N3CCCCC3)c(C#N)c3c2-c2cccc4cccc-3c24)cc1

photoluminescence quantum yield (in ClC(Cl)Cl): 0.275
Structure (SMILES): Cc1ccc(C2=Cc3c4ccccc4c4ccccc4[n+]3[B-](F)(F)O2)cc1

photoluminescence quantum yield (in C1COCCO1): 0.007
Structure (SMILES): COC(=O)c1ccc(/C=C2\C=C(c3ccccc3)OC2=O)cc1

photoluminescence quantum yield (in ClCCl): 0.54
Structure (SMILES): N#Cc1ccc(C2=Cc3cc4ccccc4cc3P2(=O)c2ccccc2)cc1 (configuration not stated)

Continued, compound first:

Structure (SMILES): CCCCCCC(CCCCCC)N1C(=O)c2cccc3c(-c4ccccc4)ccc(c23)C1=O
photoluminescence quantum yield (in CCCCCC): 0.076 | photoluminescence quantum yield (in CCCCCCCCCCCCCC): 0.094 | photoluminescence quantum yield (in CCCCCCCCCCCO): 0.76 | photoluminescence quantum yield (in CCCCO): 0.95 | photoluminescence quantum yield (in CN(C)C=O): 0.74 | photoluminescence quantum yield (in Cc1ccccc1): 0.5 | photoluminescence quantum yield (in ClC(Cl)Cl): 0.78

Structure (SMILES): CCCCCCCCCCCCN1C(=O)c2c(c3ccc4cc(-c5cccs5)c(OC)cc4c3c3c2ccc2cc(-c4cccs4)c(OC)cc23)C1=O
photoluminescence quantum yield (in ClCCl): 0.216

Structure (SMILES): Nc1ccc2c3cccc4cccc(c5cccc1c52)c43
photoluminescence quantum yield (in C1CCCCC1): 0.55 | photoluminescence quantum yield (in C1CCOC1): 0.58 | photoluminescence quantum yield (in C1COCCO1): 0.28 | photoluminescence quantum yield (in CC(C)=O): 0.5 | photoluminescence quantum yield (in CCCCOCCCC): 0.24 | photoluminescence quantum yield (in CCOC(C)=O): 0.2 | photoluminescence quantum yield (in CN(C)C=O): 0.56 | photoluminescence quantum yield (in CO): 0.45 | photoluminescence quantum yield (in ClCCl): 0.47

Structure (SMILES): CCCC1(CCC)c2ccccc2-c2ccccc21
photoluminescence quantum yield (in C1CCCCC1): 0.36

Structure (SMILES): C/C(=N\Nc1ccc(C#N)cc1)c1cccc(/C(C)=N/Nc2ccc(C#N)cc2)c1
photoluminescence quantum yield (in CO): 0.14

Structure (SMILES): CC(C)(C)c1cc(-c2c3cc(c(-c4cc(C(C)(C)C)cc(C(C)(C)C)c4)c4ccc([nH]4)c(-c4ccc(Br)cc4)c4nc(c(-c5ccc(Br)cc5)c5ccc2[nH]5)C=C4)N=C3)cc(C(C)(C)C)c1
photoluminescence quantum yield (in ClCCl): 0.0127

Structure (SMILES): CCOC(=O)c1c(NC(C)(C)C)oc(-c2ccc(-c3ccccc3)cc2)c1C(=O)OCC
photoluminescence quantum yield (in CC#N): 0.235

Structure (SMILES): C[Si](C)(C)C#Cc1ccc(C#Cc2cnc(C#Cc3ccccc3)nc2)cc1
photoluminescence quantum yield (in C1CCCCC1): 0.0085

Structure (SMILES): COC(=O)[C@]12N=N[C@](C(=O)OC)(C3C4C5C4C5C31)C1C3C4C3C4C12 (some centres not stated)
photoluminescence quantum yield (in CC#N): 0.039

Structure (SMILES): CC(=O)Nc1ccc(/C=C2\OC(=O)c3cc(N)ccc32)cc1
photoluminescence quantum yield (in CC#N): 0.015 | photoluminescence quantum yield (in CC(C)=O): 0.02 | photoluminescence quantum yield (in CC(C)CO): 0.032 | photoluminescence quantum yield (in CC(C)O): 0.032 | photoluminescence quantum yield (in CCCO): 0.03 | photoluminescence quantum yield (in CCO): 0.028 | photoluminescence quantum yield (in CCOC(C)=O): 0.023 | photoluminescence quantum yield (in CCOCC): 0.04 | photoluminescence quantum yield (in CO): 0.02

Structure (SMILES): c1ccc(-p2c(-c3cccs3)cc3ccccc32)cc1 (configuration not stated)
photoluminescence quantum yield (in C1CCOC1): 0.07

Structure (SMILES): Cc1cc(-c2nnc(-c3c(C(C)C)cc(C(C)C)cc3C(C)C)o2)ccc1-n1c2ccccc2c2ccccc21
photoluminescence quantum yield (in Cc1ccccc1): 0.38

Structure (SMILES): COc1ccc(-c2csc(/C(C#N)=C/c3c(Cl)cccc3Cl)n2)cc1
photoluminescence quantum yield (in CC#N): 0.038

Structure (SMILES): COC(=O)c1ccc(/C=C2\C=C(c3ccc(OC)c(OC)c3)NC2=O)cc1
photoluminescence quantum yield (in C1COCCO1): 0.363

Structure (SMILES): Fc1c(F)c(-n2c3ccccc3c3ccccc32)c(F)c(F)c1-c1nnc(-c2ccccc2)o1
photoluminescence quantum yield (in Cc1ccccc1): 0.27

Structure (SMILES): Cc1ccc(C)n1-c1ccc(C#N)cc1
photoluminescence quantum yield (in C1CCOC1): 0.025 | photoluminescence quantum yield (in CCCCCC): 0.026 | photoluminescence quantum yield (in CCCCCl): 0.035 | photoluminescence quantum yield (in CCOCC): 0.019 | photoluminescence quantum yield (in ClCCl): 0.033

Structure (SMILES): CCCCCCCN1C(=CC2=C([O-])C(=Cc3sc4ccccc4[n+]3CCCCCCC)C2=C(C#N)C#N)Sc2ccccc21
photoluminescence quantum yield (in C1COCCO1): 0.09 | photoluminescence quantum yield (in CCO): 0.14 | photoluminescence quantum yield (in CN(C)C=O): 0.14 | photoluminescence quantum yield (in ClC(Cl)Cl): 0.13

Structure (SMILES): O=Cc1ccc(-c2ccc(C3=CCC(c4ccccc4)CC3)s2)s1 (configuration not stated)
photoluminescence quantum yield (in CCO): 0.29

Structure (SMILES): COc1ccccc1-n1nc(C#N)c(N2CCCC2)n1
photoluminescence quantum yield (in CC#N): 0.456

Structure (SMILES): CCCCCCCN1C(=CC2=C([O-])C(=CC3=[N+](CCCCCCC)c4ccccc4C3(C)C)C2=C(C#N)C#N)C(C)(C)c2ccccc21
photoluminescence quantum yield (in C1COCCO1): 0.19 | photoluminescence quantum yield (in CCO): 0.13 | photoluminescence quantum yield (in CN(C)C=O): 0.08 | photoluminescence quantum yield (in ClC(Cl)Cl): 0.18

Structure (SMILES): Cc1cc(C#N)ccc1N1c2ccccc2C(c2ccccc2)(c2ccccc2)c2ccccc21
photoluminescence quantum yield (in Cc1ccccc1): 0.12

Structure (SMILES): CCOc1ccc(/C=C/C=C/C=C/c2ccc([N+](=O)[O-])cc2)cc1
photoluminescence quantum yield (in CC1CCCCC1): 0.22 | photoluminescence quantum yield (in CC#N): 0.017 | photoluminescence quantum yield (in Cc1ccccc1): 0.5 | photoluminescence quantum yield (in ClCCl): 0.068

Structure (SMILES): CC1(C)c2ccccc2N(c2ccc3c(c2)Oc2ccccc2P3(=O)c2ccccc2)c2ccccc21 (configuration not stated)
photoluminescence quantum yield (in Cc1ccccc1): 0.37 | photoluminescence quantum yield [1]: 0.62

Structure (SMILES): N#Cc1cc(/C=C/c2ccc(/C=C/c3ccc(N(c4ccccc4)c4ccccc4)cc3)c(C#N)c2)ccc1/C=C/c1ccc(N(c2ccccc2)c2ccccc2)cc1
photoluminescence quantum yield (in ClCCl): 0.32

Structure (SMILES): COc1ccc(-c2ncccn2)cc1
photoluminescence quantum yield (in ClCCl): 0.01

Structure (SMILES): c1ccc(-c2nc(-c3ccccc3)nc(-n3c4ccccc4c4cc(-n5c6ccccc6c6ccccc65)cc(-n5c6ccccc6c6ccccc65)c43)n2)cc1
photoluminescence quantum yield [1]: 0.85

Structure (SMILES): Cc1cc(C)n2c1C=C1c3ccccc3C(c3cccn3C)=[N+]1[B-]2(F)F
photoluminescence quantum yield (in C1CCOC1): 0.96 | photoluminescence quantum yield (in CC#N): 0.97 | photoluminescence quantum yield (in CCCCCC): 0.96 | photoluminescence quantum yield (in CO): 0.98 | photoluminescence quantum yield (in Cc1ccccc1): 0.94 | photoluminescence quantum yield (in ClCCl): 0.99

Structure (SMILES): C[n+]1ccc(/C=C/c2ccc(N(c3ccccc3)c3ccc(/C=C/c4cc[n+](C)cc4)cc3)cc2)cc1
photoluminescence quantum yield (in ClCCl): 0.64 | photoluminescence quantum yield (in O): 0.08 | photoluminescence quantum yield (in OCC(O)CO): 0.11

Structure (SMILES): CN(C)c1ccc2c(c1)C(=O)c1ccccc1-2
photoluminescence quantum yield (in C1CCCCC1): 0.0087 | photoluminescence quantum yield (in c1ccccc1): 0.0012

Structure (SMILES): CCCCN(CCCC)c1ccc(C#Cc2cc(C#Cc3ccc(N(CCCC)CCCC)cc3)c(C#Cc3c(F)c(F)c(F)c(F)c3F)cc2C#Cc2c(F)c(F)c(F)c(F)c2F)cc1
photoluminescence quantum yield (in ClCCl): 0.3

Structure (SMILES): CCCCCCN1C(=O)c2cccc3c(-c4ccc(OC)s4)ccc(c23)C1=O
photoluminescence quantum yield (in ClC(Cl)Cl): 0.65
